The structures appear in SMILES notation.

The test system of series [1] is Rattus norvegicus. Nature of the series: Anti-inflammatory activity in Rattus norvegicus Wistar albino (rat) assessed as inhibition of carrageenan-induced paw edema at 3.62 X 10^2 umol/kg, po administered 1 hr prior to carrageenan challenge through oral gavage measured 2 hr after carrageenan treatment by plethysmometer. It counts as functional. Background: Carrageenan injected into the paw causes an acute inflammation.

In series [2] the test system is Rattus norvegicus. Nature of the series: Anti-inflammatory activity in Rattus norvegicus Wistar albino (rat) assessed as inhibition of carrageenan-induced paw edema at 3.62 X 10^2 umol/kg, po administered 1 hr prior to carrageenan challenge through oral gavage measured 1 hr after carrageenan treatment by plethysmometer. Format: functional.
Series [3] relates to Rattus norvegicus. Nature of the series: Anti-inflammatory activity in Rattus norvegicus Wistar albino (rat) assessed as inhibition of carrageenan-induced paw edema at 3.62 X 10^2 umol/kg, po administered 1 hr prior to carrageenan challenge through oral gavage measured 4 hr after carrageenan treatment by plethysmometer. It counts as functional.
Series [4] deals with Rattus norvegicus. Nature of the series: Anti-inflammatory activity in Rattus norvegicus Wistar albino (rat) assessed as inhibition of carrageenan-induced paw edema at 7.24 X 10^2 umol/kg, po administered 1 hr prior to carrageenan challenge through oral gavage measured measured 1 hr after carrageenan treatment by plethysmometer. It counts as functional.
Series [5] has as its system Rattus norvegicus. As to the kind of experiment: Anti-inflammatory activity in Rattus norvegicus Wistar albino (rat) assessed as inhibition of carrageenan-induced paw edema at 14.48 X 10^2 umol/kg, po administered 1 hr prior to carrageenan challenge through oral gavage measured measured 1 hr after carrageenan treatment by plethysmometer. It counts as functional.
Series [6] is described as follows: Toxicity in Rattus norvegicus Wistar albino (rat) assessed as mortality at 57.92 X 10^2 umol/kg, po. It counts as organism-based. Conditions: in vivo, read-out: Activity.
Series [7] concerns Oryctolagus cuniculus. As to the kind of experiment: Inhibition of hyaluronidase-induced capillary permeability in albino Oryctolagus cuniculus (rabbit) assessed as area of subcutaneous spreading of trypan blue at 7.24 x 10^2 umol/kg, po pretreated 1 hr prior to mixture of hyaluronidase and trypan blue challenge measured after 30 min (reference value: 498.8 mm'2). Format: functional.

The subject of series [8] is Oryctolagus cuniculus. As to the kind of experiment: Inhibition of hyaluronidase-induced capillary permeability in albino Oryctolagus cuniculus (rabbit) assessed as area of subcutaneous spreading of trypan blue at 3.62 x 10^2 umol/kg, po pretreated 1 hr prior to mixture of hyaluronidase and trypan blue challenge measured after 30 min (reference value: 498.8 mm'2). Format: functional.

In series [9] the test system is Rattus norvegicus. As to the kind of experiment: Anti-inflammatory activity in Rattus norvegicus Wistar albino (rat) assessed as inhibition of carrageenan-induced paw edema at 7.24 X 10^2 umol/kg, po administered 1 hr prior to carrageenan challenge through oral gavage measured measured 3 hr after carrageenan treatment by plethysmometer. Format: functional.
Series [10] in a line: Toxicity in Rattus norvegicus Wistar albino (rat) assessed as mortality at 61.54 X 10^2 umol/kg, po. It counts as organism-based. Conditions: in vivo, read-out: Activity.
The subject of series [11] is Rattus norvegicus. As to the kind of experiment: Toxicity in Rattus norvegicus Wistar albino (rat) assessed as mortality at 18.1 to 54.3 X 10^2 umol/kg, po. The following applies: in vivo. Format: organism-based.
The subject of series [12] is Rattus norvegicus. As to the kind of experiment: Anti-inflammatory activity in Rattus norvegicus Wistar albino (rat) assessed as inhibition of carrageenan-induced paw edema at 14.48 X 10^2 umol/kg, po administered 1 hr prior to carrageenan challenge through oral gavage measured measured 4 hr after carrageenan treatment by plethysmometer. Format: functional.
The subject of series [13] is Rattus norvegicus. As to the kind of experiment: Anti-inflammatory activity in Rattus norvegicus Wistar albino (rat) assessed as inhibition of carrageenan-induced paw edema at 14.48 X 10^2 umol/kg, po administered 1 hr prior to carrageenan challenge through oral gavage measured measured 3 hr after carrageenan treatment by plethysmometer. Format: functional.
Series [14] can be described thus: Toxicity in po dosed Rattus norvegicus Wistar albino (rat) assessed as mortality. Format: organism-based. Conditions: in vivo.
Series [15] relates to Rattus norvegicus. Nature of the series: Toxicity in Rattus norvegicus Wistar albino (rat) assessed as mortality at 68.78 X 10^2 umol/kg, po. Format: organism-based. Conditions: in vivo.
The subject of series [16] is Rattus norvegicus. Nature of the series: Toxicity in Rattus norvegicus Wistar albino (rat) assessed as lethargy at 18.1 to 36.2 X 10^2 umol/kg, po. Format: organism-based. The following applies: in vivo.
Series [17] relates to Oryctolagus cuniculus. As to the kind of experiment: Inhibition of hyaluronidase-induced capillary permeability in albino Oryctolagus cuniculus (rabbit) assessed as area of subcutaneous spreading of trypan blue at 3.62 x 10^2 umol/kg, po pretreated 1 hr prior to mixture of hyaluronidase and trypan blue challenge measured after 5 min (reference value: 288.5 mm'2). Format: functional.

In series [18] the test system is Rattus norvegicus. As to the kind of experiment: Toxicity in Rattus norvegicus Wistar albino (rat) assessed as mortality at 65.16 to 68.78 X 10^2 umol/kg, po measured after 12 hr. It counts as organism-based. Conditions: in vivo.
The subject of series [19] is Rattus norvegicus. As to the kind of experiment: Toxicity in Rattus norvegicus Wistar albino (rat) assessed as drinking frequency at 18.1 to 36.2 X 10^2 umol/kg, po. It counts as organism-based. Conditions: in vivo.
Series [20] has as its system Rattus norvegicus. As to the kind of experiment: Toxicity in Rattus norvegicus Wistar albino (rat) assessed as lethargy at 54.3 X 10^2 umol/kg, po. It counts as organism-based. The following applies: in vivo.
The subject of series [21] is Rattus norvegicus. As to the kind of experiment: Toxicity in Rattus norvegicus Wistar albino (rat) assessed as animal posture at 61.54 umol/kg, po. It counts as organism-based. Conditions: in vivo.
Series [22] deals with Rattus norvegicus. Nature of the series: Anti-inflammatory activity in Rattus norvegicus Wistar albino (rat) assessed as inhibition of carrageenan-induced paw edema at 7.24 X 10^2 umol/kg, po administered 1 hr prior to carrageenan challenge through oral gavage measured measured 4 hr after carrageenan treatment by plethysmometer. Format: functional.
Series [23] is described as follows: Toxicity in Rattus norvegicus Wistar albino (rat) assessed as mortality at 65.16 X 10^2 umol/kg, po. Conditions: in vivo, read-out: Activity. It counts as organism-based.
Series [24] deals with Rattus norvegicus. Nature of the series: Anti-inflammatory activity in Rattus norvegicus Wistar albino (rat) assessed as inhibition of carrageenan-induced paw edema at 3.62 X 10^2 umol/kg, po administered 1 hr prior to carrageenan challenge through oral gavage measured 3 hr after carrageenan treatment by plethysmometer. Format: functional.
The test system of series [25] is Rattus norvegicus. Nature of the series: Anti-inflammatory activity in Rattus norvegicus Wistar albino (rat) assessed as inhibition of carrageenan-induced paw edema at 7.24 X 10^2 umol/kg, po administered 1 hr prior to carrageenan challenge through oral gavage measured measured 2 hr after carrageenan treatment by plethysmometer. It counts as functional.
For series [26], the system named is Oryctolagus cuniculus. Nature of the series: Inhibition of hyaluronidase-induced capillary permeability in albino Oryctolagus cuniculus (rabbit) assessed as area of subcutaneous spreading of trypan blue at 7.24 x 10^2 umol/kg, po pretreated 1 hr prior to mixture of hyaluronidase and trypan blue challenge measured after 5 min (reference value: 288.5 mm'2). It counts as functional.

The subject of series [27] is Rattus norvegicus. Nature of the series: Toxicity in Rattus norvegicus Wistar albino (rat) assessed as lethargy at 57.92 X 10^2 umol/kg, po. It counts as organism-based. Conditions: in vivo.
Series [28] has as its system Rattus norvegicus. As to the kind of experiment: Anti-inflammatory activity in Rattus norvegicus Wistar albino (rat) assessed as inhibition of carrageenan-induced paw edema at 14.48 X 10^2 umol/kg, po administered 1 hr prior to carrageenan challenge through oral gavage measured measured 2 hr after carrageenan treatment by plethysmometer. It counts as functional.
Series [29] has as its system Rattus norvegicus. As to the kind of experiment: Anti-inflammatory activity in Rattus norvegicus Wistar albino (rat) assessed as inhibition of carrageenan-induced paw edema at 69.8 X 10^2 umol/kg, po administered 1 hr prior to carrageenan challenge through oral gavage measured measured 4 hr after carrageenan treatment by plethysmometer. It counts as functional.
Series [30] has as its system Rattus norvegicus. Nature of the series: Toxicity in Rattus norvegicus Wistar albino (rat) assessed as mortality at 139.6 umol/kg, po. It counts as organism-based. Conditions: in vivo.
Series [31] deals with Rattus norvegicus. Nature of the series: Toxicity in Rattus norvegicus Wistar albino (rat) assessed as mortality at 69.8 umol/kg, po. Conditions: in vivo. It counts as organism-based.
Series [32] relates to Oryctolagus cuniculus. As to the kind of experiment: Inhibition of hyaluronidase-induced capillary permeability in albino Oryctolagus cuniculus (rabbit) assessed as area of subcutaneous spreading of trypan blue at 27.9 umol/kg, po pretreated 1 hr prior to mixture of hyaluronidase and trypan blue challenge measured after 30 min (reference value: 498.8 mm'2). It counts as functional.

Series [33] has as its system Rattus norvegicus. As to the kind of experiment: Anti-inflammatory activity in Rattus norvegicus Wistar albino (rat) assessed as inhibition of carrageenan-induced paw edema at 69.8 X 10^2 umol/kg, po administered 1 hr prior to carrageenan challenge through oral gavage measured measured 1 hr after carrageenan treatment by plethysmometer. It counts as functional.
The test system of series [34] is Oryctolagus cuniculus. As to the kind of experiment: Inhibition of hyaluronidase-induced capillary permeability in albino Oryctolagus cuniculus (rabbit) assessed as area of subcutaneous spreading of trypan blue at 27.9 umol/kg, po pretreated 1 hr prior to mixture of hyaluronidase and trypan blue challenge measured after 5 min (reference value: 288.5 mm'2). It counts as functional.

The subject of series [35] is Rattus norvegicus. Nature of the series: Anti-inflammatory activity in Rattus norvegicus Wistar albino (rat) assessed as inhibition of carrageenan-induced paw edema at 69.8 X 10^2 umol/kg, po administered 1 hr prior to carrageenan challenge through oral gavage measured measured 2 hr after carrageenan treatment by plethysmometer. Format: functional.

Regarding `O=c1ccc(O)ccc1O`, the “inhibition (INH)” value in the series on Rattus norvegicus [1] was 52%; in the series on Rattus norvegicus [2], 48%; with Rattus norvegicus [3], 42%; in the series with Rattus norvegicus [4], 41%; with Rattus norvegicus [5] it was 76%; in the series on Rattus norvegicus [9], 79%. Moreover, the “inhibition (INH)” value in the series with Rattus norvegicus [12] stood at 75%; with Rattus norvegicus [13], 83%; with Rattus norvegicus [22], 67%; in the series with Rattus norvegicus [24] it was 45%; in the series on Rattus norvegicus [25], 72%; with Rattus norvegicus [28], 75%. The mortality in series [6] is 16%; in [10], 33%; in series [23] it was 66%. The Activity in the series with Oryctolagus cuniculus [7] is reported as 267.5 mm2; in the series on Oryctolagus cuniculus [8] it was 196 mm2; in the series on Rattus norvegicus [11], “Non-toxic”; with Rattus norvegicus [15] it was “Toxic”; in the series on Rattus norvegicus [16] it was “Non-toxic”; with Oryctolagus cuniculus [17], 212.5 mm2. The Activity entry with Rattus norvegicus [18] is reported as “Toxic”; with Rattus norvegicus [19], “Non-toxic”; in the series on Rattus norvegicus [20] it was “Toxic”; in the series with Rattus norvegicus [21], “Toxic”; in the series with Oryctolagus cuniculus [26], 256 mm2; in the series on Rattus norvegicus [27] it was “Toxic”. Besides, in [14], the LD50 (as a rule, the dose at which mortality reaches 50%) worked out at 6440 µmol/kg.
Regarding `COc1ccc2c(c1)c(CC(=O)O)c(C)n2C(=O)c1ccc(Cl)cc1` [INDOMETHACIN], the figures for the “inhibition (INH)” value with Rattus norvegicus [29], with Rattus norvegicus [33] and with Rattus norvegicus [35] were 45%, 50% and 51%, respectively. Further, the Activity entry with Rattus norvegicus [30] is on record as “Toxic”; with Rattus norvegicus [31] it was “Non-toxic”; with Oryctolagus cuniculus [32], 279.3 mm2; in the series with Oryctolagus cuniculus [34], 227 mm2.

The values above are taken from ChEMBL document CHEMBL3045501, “Anti-inflammatory activity of 2,5-dihydroxycyclohepta-2,4,6-trienone in rats” (Med Chem Res, 2010).
